The text below walks through data of PubChem BioAssay (NCI).

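A five-concentration, 48-hour dose response in 96-well plates underlies each endpoint, interpolated linearly between surrounding concentrations. At the TGI there is no net growth.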 Some results are limits rather than exact numbers.

What all share (experiment): inhibition of tumour cell growth, NCI panel, 48 h
Assay [1] has as its system RPMI-8226 leukemia.
Assay [2] deals with KM20L2 colon.
The subject of assay [3] is HOP-92 NSCLC.
In assay [4] the test system is NCI-H522 lung.
The subject of assay [5] is DMS 114 small cell lung.
Assay [6] concerns RXF 393 renal.
Assay [7] deals with NCI-H460 lung.
Assay [8] concerns LXFL 529 NSCLC.
The test system of assay [9] is SR leukemia.
For assay [10], the system named is NCI/ADR-RES ovarian.
In assay [11] the test system is CAKI-1 renal.
For assay [12], the system named is BT-549 breast.
Assay [13] relates to T-47D breast.
Assay [14] relates to LOX IMVI melanoma.
Assay [15] deals with NCI-H226 lung.
In assay [16] the test system is PC-3 prostate.
Assay [17] has as its system MDA-MB-435.
The test system of assay [18] is ACHN renal.
Assay [19] deals with MCF7 breast.
The test system of assay [20] is HCC-2998 colon.

In the case of `O=C1C(Cl)N(c2cccc([N+](=O)[O-])c2)C1c1c[nH]c2ccccc12` (stereo not drawn), the TGI in assay [1] was determined as 52.2 µM; in assay [2], 53.6 µM; in assay [3], 47.9 µM; in assay [4], 48.7 µM; in assay [5], 47 µM; in assay [6], 27 µM. Further, the TGI in [7] turned out to be 35.4 µM; in assay [8] it was 20.4 µM; in assay [9], 57 µM.
Take `COC(=O)C1=C(OC(=O)/C=C/c2ccc(Cl)cc2)C(C(=O)OC)[C@@]2(O)[C@@H](C(=O)OC)[C@H](C)C[C@@H]1[C@@H]2C(=O)OC` (stereo partly drawn): the TGI in assay [4] was 23.1 µM; in assay [10], 64.6 µM; in assay [11], 87.3 µM; in assay [12] it was 53.7 µM; in assay [13], greater than 100 µM; in assay [14], 37.7 µM. The TGI in assay [6] is greater than 100 µM; in assay [15], 61 µM; in [16] it was 69 µM; in assay [7], greater than 100 µM; in [17] it was greater than 100 µM; in [18], 80 µM.
Consider `NC12CCC(CC1=O)C2` (stereo not drawn), for which the TGI in assay [1], in [3], in [19], in assay [10], in assay [13] and in [20] was greater than 100 µM in each case. Moreover, the TGI in [14], in [15], in assay [16], in assay [17], in [18] and in assay [9] was greater than 100 µM in each case.
